Experimental data published in article PMC8788354 (Journal of Enzyme Inhibition and Medicinal Chemistry, 2022).

Assays:
in vitro = conditions: human, Toxicity IC50 (nM) ± SD, HDF, healthy cell line HDF, SRB assay, 72 h exposure
[1] = system: U-87MG cells (glioblastoma cell line); experiment: cells; assay type: cell-based, human; conditions: Homo sapiens, U-87 MG; SRB assay, 72 h exposure; read-out: Anticancer activity IC50 (nM) ± SD, U-87
[2] = system: SKOV-3 (ovarian cancer cell line); experiment: cells; assay type: cell-based, human; conditions: Homo sapiens, SK-OV-3; SRB assay, 72 h exposure; read-out: Anticancer activity IC50 (nM) ± SD, SKOV-3
[3] = system: Human Dermal Fibroblasts cell line (HDF); conditions: read-out: Toxicity IC50 (nM) ± SD, HDF; healthy cell line HDF, SRB assay, 72 h exposure
[4] = system: SKBR-3 (human breast cancer cell line); experiment: cells; assay type: cell-based; conditions: Homo sapiens, SK-BR-3, 72 h, SRB assay, 72 h exposure; read-out: Anticancer activity IC50 (nM) ± SD, SKBR-3
[5] = system: SKBR-3, SKOV-3, PC-3, U-87 cells; experiment: SRB cytotoxicity assay, values summarised over cancer cell lines; assay type: cell-based, human; conditions: Homo sapiens, SKBR-3, SKOV-3, PC-3, U-87; read-out: Anticancer IC50 over the studied cancer cell lines
[6] = system: PC-3 (human prostate cancer cell line); experiment: cells; assay type: cell-based; conditions: Homo sapiens; SRB assay, 72 h exposure; read-out: Anticancer activity IC50 (nM) ± SD, PC-3

COc1cc2c(c(OC)c1OC)-c1ccc(OCc3ccc(/C=C/c4ccccn4)cc3)c(=O)cc1[C@@H](NC(C)=O)CC2 [Compound 8b]
IC50 (in vitro): 4 to 5 nM
IC50 [1]: 2.49 ± 0.05 nM
IC50 [2]: 2.84 ± 0.03 nM
IC50 [3]: 4.83 ± 0.27 nM
IC50 [4]: 2.77 ± 0.04 nM
IC50 [5]: 2 to 2.5 nM
IC50 [6]: 2.63 ± 0.77 nM
